Data from patent publication US20160193216A1 (Nimbus Iris, Inc., priority 2012, published 2016).
Structures can show the parent of a compound that is named as a salt. Where two headings read alike, the source gives them in different places.

Legend:
IRAK4 = target: T1, IRAK4 (Homo sapiens, UniProt Q9NWZ3); test: IRAK-4 activity inhibition assay (Caliper); type: biochemical; details: 37 μM ATP, 3.5 nM IRAK4
T1 sequence (Q9NWZ3 1-460): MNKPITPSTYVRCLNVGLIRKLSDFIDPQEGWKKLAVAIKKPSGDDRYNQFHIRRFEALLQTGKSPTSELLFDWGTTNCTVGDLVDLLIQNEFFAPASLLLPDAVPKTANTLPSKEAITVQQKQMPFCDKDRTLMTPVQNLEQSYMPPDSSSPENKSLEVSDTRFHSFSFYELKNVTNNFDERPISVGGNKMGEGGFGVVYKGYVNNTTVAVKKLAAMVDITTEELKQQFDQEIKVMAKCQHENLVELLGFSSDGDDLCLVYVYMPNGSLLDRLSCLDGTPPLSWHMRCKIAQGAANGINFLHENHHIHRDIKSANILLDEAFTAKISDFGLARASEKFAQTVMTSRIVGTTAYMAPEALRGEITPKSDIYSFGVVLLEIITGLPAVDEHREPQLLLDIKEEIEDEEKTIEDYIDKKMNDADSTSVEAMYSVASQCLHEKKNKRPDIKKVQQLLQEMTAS

THP-1 cells = test: LPS induced cytokine (TNFα and IL8) production assay in THP-1 cells; type: cell-based; details: Homo sapiens, 300 ng/mL LPS
Description: Cytokine Production Assay
Provided compounds were also assayed in an LPS (Lipopolysacharide) or R848 (TLR-7 agonist) induced cytokine (TNFα and IL8) production assay in THP-1 cells, human peripheral blood mononuclear cells (hPBMC), and whole blood. The exemplary protocol for this assay in THP-1 cells was as follows below.
THP-1 cells from ATCC (TIB-202) were cultured in RPMI Medium 1640 (Invitrogen, Cat No. A10491-01), 10% fetal bovine serum (Invitrogen, Cat No. 10099141, Lot No. 8172882) containing 100 U/mL Penicillin, 100 μg/mL streptomycin (Invitrogen, Cat No. 15140-122), and 50 uM 2-Mercaptoethanol (Invitrogen, Cat No. 21985023). LPS-EK ultra pure (Invivogen, Cat No. tlrl-peklps) was used to induce IL8 and TNFα production, that was detected in the cell culture supernatant by IL8 HTRF kit (Cisbio, Cat No. 62IL8PEB) and TNFα HTRF kit (Cisbio, Cat No. 62TNFPEB), as per manufacturer instructions. Cells were cultured in 96 well assay plates at 100,000 cells per well, and compounds diluted in final 0.3% DMSO were pre-incubated with cells for 1 hour prior to stimulation with 300 ng/mL LPS. Cytokine production in cell supernatant was measured at 5 hours for TNFα and IL8 production, and for 16 hours for IL8 production and assessment of cell viability.
The compound numbers correspond to the compound numbers in Table 1. […] “NA” stands for “not assayed.”

For `NC(=O)C(F)(F)C[C@H]1CCc2sc3ncnc(O[C@H]4CC[C@H](N5CCOCC5)CC4)c3c21` [Compound I-142, 2,2-difluoro-3-((R)-4-(((1r,4R)-4-morpholinocyclohexyl)oxy)-6,7-dihydro-5H-cyclopenta[4,5]thieno[2,3-d]pyrimidin-5-yl)propanamide], the IC50 (IRAK4) was under 5 µM, the IC50 (THP-1 cells; read-out: IL8 production IC50) was at most 0.5 µM and the IC50 (THP-1 cells; read-out: TNFα production IC50) was at most 0.5 µM.
For `CN(C)[C@H]1CC[C@H](Oc2ncnc3sc4c(c23)[C@@H](C[C@H](O)C(=O)NCO)CC4)CC1` [Compound I-100, (S)-3-((R)-4-(((1r,4R)-4-(dimethylamino)cyclohexyl)oxy)-6,7-dihydro-5H-cyclopenta[4,5]thieno[2,3-d]pyrimidin-5-yl)-2-hydroxy-N-(hydroxymethyl)propanamide], the IC50 (IRAK4) was under 5 µM, the IC50 (THP-1 cells; read-out: IL8 production IC50) was 1 to 5 µM and the IC50 (THP-1 cells; read-out: TNFα production IC50) was 1 to 5 µM.
For `CCN[C@H]1CC[C@H](Oc2ncnc3sc4c(c23)[C@@H](C[C@H](O)C(N)=O)CC4)CC1` [Compound I-136, (2S)-3-[(3R)-12-[[4-(ethylamino)cyclohexyl]oxy]-7-thia-9,11-diazatricyclo[6.4.0.0[2,6]]dodeca-1(8),2(6),9,11-tetraen-3-yl]-2-hydroxypropanamide], the IC50 (IRAK4) was under 5 µM, the IC50 (THP-1 cells; read-out: IL8 production IC50) was at most 0.5 µM and the IC50 (THP-1 cells; read-out: TNFα production IC50) was 0.5 to 1 µM.
In the case of `CN(C)[C@H]1CC[C@H](Oc2ncnc3sc4c(c23)CN(S(C)(=O)=O)CC4)CC1` [Compound I-168, 4-([12-methanesulfonyl-8-thia-4,6,12-triazatricyclo[7.4.0.0-[2,7]]trideca-1(9),2(7),3,5-tetraen-3-yl]oxy)-N,N-dimethylcyclohexan-1-amine], the IC50 (IRAK4) is reported as under 5 µM, the IC50 (THP-1 cells; read-out: IL8 production IC50) is reported as at least 5 µM and the IC50 (THP-1 cells; read-out: TNFα production IC50) is reported as at least 5 µM.
Work on `CN(CCc1ccccn1)[C@H]1CC[C@H](Oc2ncnc3sc4c(c23)[C@@H](CC(N)=O)CC4)CC1` [Compound I-128, 2-((R)-4-(((1 r,4R)-4-(methyl(2-(pyridin-2-yl)ethyl)amino)cyclohexyl)oxy)-6,7-dihydro-5H-cyclopenta[4,5]thieno[2,3-d]pyrimidin-5-yl)acetamide] yielded an IC50 (IRAK4) of under 5 µM, an IC50 (THP-1 cells; read-out: IL8 production IC50) of 0.5 to 1 µM and an IC50 (THP-1 cells; read-out: TNFα production IC50) of 1 to 5 µM.
`CN(C)[C@H]1CC[C@H](Nc2ncnc3sc4c(c23)CC(C)(C)OC4)CC1` [Compound I-194, 4-N-[12, 12-dimethyl-11-oxa-8-thia-4,6-diazatricyclo[7.4.0.0[2,7]]trideca-1(9),2(7),3,5-tetraen-3-yl]-1-N, 1-N-dimethylcyclohexane-1,4-diamine] was tested, and the IC50 (IRAK4) was under 5 µM, the IC50 (THP-1 cells; read-out: IL8 production IC50) was 1 to 5 µM and the IC50 (THP-1 cells; read-out: TNFα production IC50) was at least 5 µM.
`CN(C)[C@H]1CC[C@H](Oc2ncnc3sc4c(c23)[C@@H](CCC#N)CC4)CC1` [Compound I-42, 3-[(3S)-12-[[4-(dimethylamino)cyclohexyl]oxy]-7-thia-9,11-diazatricyclo 1[6.4.0.0[2,6]]dodeca-1(8),2(6),9,11-tetraen-3-yl]propanenitrile] showed an IC50 (IRAK4) of under 5 µM, an IC50 (THP-1 cells; read-out: IL8 production IC50) of at most 0.5 µM and an IC50 (THP-1 cells; read-out: TNFα production IC50) of at most 0.5 µM.
`CN(C)[C@H]1CC[C@H](Oc2ncnc3sc4c(c23)[C@@H](CC(N)=O)CC4)CC1` [Compound I-43, 2-[(3R)-12-[[4-(dimethylamino)cyclohexyl]oxy]-7-thia-9,11-diazatricyclo[6.4.0.0[2,6]]dodeca-1(8),2(6),9,11-tetraen-3-yl]acetamide] was tested, and the IC50 (IRAK4) was under 5 µM, the IC50 (THP-1 cells; read-out: IL8 production IC50) was 0.5 to 1 µM and the IC50 (THP-1 cells; read-out: TNFα production IC50) was 0.5 to 1 µM.
Work on `CN(C)[C@H]1CC[C@H](Oc2ncnc3sc4c(c23)CC(CCO)CC4)CC1` (stereo partly drawn) [Compound I-108, 2-[3-[[4-(dimethylamino)cyclohexyl]oxy]-8-thia-4,6-diazatricyclo[7.4.0.0[2,7]]trideca-1(9),2(7),3,5-tetraen-12-yl]ethan-1-ol formate] yielded an IC50 (IRAK4) of under 5 µM and an IC50 (THP-1 cells; read-out: TNFα production IC50) of 1 to 5 µM.
With `CN(C)[C@H]1CC[C@H](Oc2ncnc3sc4c(c23)[C@@H](CCC(N)=O)CC4)CC1` [Compound I-44, 3-[(3S)-12-[[4-(dimethylamino)cyclohexyl]oxy]-7-thia-9,11-diazatricyclo[6.4.0.0[2,6]]dodeca-1(8),2(6),9,11-tetraen-3-yl]propanamide] the IC50 (IRAK4) was under 5 µM, the IC50 (THP-1 cells; read-out: IL8 production IC50) was 1 to 5 µM and the IC50 (THP-1 cells; read-out: TNFα production IC50) was 0.5 to 1 µM.
`CN(CC(=O)N1CCCC1)[C@H]1CC[C@H](Oc2ncnc3sc4c(c23)[C@@H](CCO)CC4)CC1` [Compound I-90, 2-(((1R,4r)-4-(((R)-5-(2-hydroxyethyl)-6,7-dihydro-5H-cyclopenta[4,5]thieno[2,3-d]pyrimidin-4-yl)oxy)cyclohexyl)(methyl)amino)-1-(pyrrolidin-1-yl)ethanone] showed an IC50 (IRAK4) of under 5 µM and an IC50 (THP-1 cells; read-out: TNFα production IC50) of 1 to 5 µM.
`CN(C)[C@H]1CC[C@H](Oc2ncnc3sc4c(c23)[C@@H](CC(O)C(N)=O)CC4)CC1` (stereo partly drawn) [Compound I-57, 3-[(3R)-12-[[4-(dimethylamino)cyclohexyl]oxy]-7-thia-9,11-diazatricyclo[6.4.0.0[2,6]]dodeca-1(8),2(6),9,11-tetraen-3-yl]-2-hydroxypropanamide] gave an IC50 (IRAK4) of under 5 µM, an IC50 (THP-1 cells; read-out: IL8 production IC50) of at most 0.5 µM and an IC50 (THP-1 cells; read-out: TNFα production IC50) of at most 0.5 µM.
With `CN(C)[C@H]1CC[C@H](Oc2ncnc3sc4c(c23)[C@@H](CCO)CC4)CC1` [Compound I-34, 2-[(3R)-12-[[4-(dimethylamino)cyclohexyl]oxy]-7-thia-9,11-diazatricyclo[6.4.0.0[2,6]]dodeca-1(12),2(6),8,10-tetraen-3-yl]ethan-1-ol] the IC50 (IRAK4) was under 5 µM, the IC50 (THP-1 cells; read-out: IL8 production IC50) was 1 to 5 µM and the IC50 (THP-1 cells; read-out: TNFα production IC50) was 1 to 5 µM.
For `CN(CC(=O)N1CCCC1)[C@H]1CC[C@H](Oc2ncnc3sc4c(c23)[C@@H](C[C@H](O)C(N)=O)CC4)CC1` [Compound I-149, (2S)-2-hydroxy-3-[(3R)-12-[(4-[methyl[2-oxo-2-(pyrrolidin-1-yl)ethyl]amino]cyclohexyl)oxy]-7-thia-9,11-diazatricyclo[6.4.0.0̂[2,6]]dodeca-1(8),2(6),9,11-tetraen-3-yl]propanamide], the IC50 (IRAK4) was under 5 µM, the IC50 (THP-1 cells; read-out: IL8 production IC50) was 1 to 5 µM and the IC50 (THP-1 cells; read-out: TNFα production IC50) was 1 to 5 µM.
`C[C@H](O)C[C@H]1CCc2sc3ncnc(O[C@H]4CC[C@H](N5CCOCC5)CC4)c3c21` [Compound I-83, (S)-1-((R)-4-(((1 r,4R)-4-morpholinocyclohexyl)oxy)-6,7-dihydro-5H-cyclopenta[4,5]thieno[2,3-d]pyrimidin-5-yl)propan-2-ol] was tested, and the IC50 (IRAK4) was under 5 µM and the IC50 (THP-1 cells; read-out: TNFα production IC50) was 0.5 to 1 µM.
In the case of `CN(C)[C@H]1CC[C@H](Oc2ncnc3sc4c(c23)C[C@H](CCO)CC4)CC1` [Compound I-110, 2-[(12R)-3-[[4-(dimethylamino)cyclohexyl]oxy]-8-thia-4,6-diazatricyclo[7.4.0.0[2,7]]trideca-1(9),2(7),3,5-tetraen-12-yl]ethan-1-ol formate], the IC50 (IRAK4) is reported as under 5 µM, the IC50 (THP-1 cells; read-out: IL8 production IC50) is reported as at most 0.5 µM and the IC50 (THP-1 cells; read-out: TNFα production IC50) is reported as 0.5 to 1 µM.
`NC(=O)[C@@H](O)C[C@H]1CCc2sc3ncnc(O[C@H]4CC[C@H](N)CC4)c3c21` [Compound I-135, (S)-3-((R)-4-(((1r,4R)-4-aminocyclohexyl)oxy)-6,7-dihydro-5H-cyclopenta[4,5]thieno[2,3-d]pyrimidin-5-yl)-2-hydroxypropanamide] showed an IC50 (IRAK4) of under 5 µM, an IC50 (THP-1 cells; read-out: IL8 production IC50) of 0.5 to 1 µM and an IC50 (THP-1 cells; read-out: TNFα production IC50) of 0.5 to 1 µM.
Work on `CN(C)[C@H]1CC[C@H](Oc2ncnc3sc4c(c23)[C@@H](C[C@@H](O)C(F)(F)F)CC4)CC1` [Compound I-68, (R)-3-((R)-4-(((1r,4R)-4-(dimethylamino)cyclohexyl)oxy)-6,7-dihydro-5H-cyclopenta[4,5]thieno[2,3-d]pyrimidin-5-yl)-1,1,1-trifluoropropan-2-ol] yielded an IC50 (IRAK4) of under 5 µM, an IC50 (THP-1 cells; read-out: IL8 production IC50) of at most 0.5 µM and an IC50 (THP-1 cells; read-out: TNFα production IC50) of 0.5 to 1 µM.
For `NC(=O)[C@H](O)C[C@H]1CCc2sc3ncnc(O[C@H]4CC[C@H](N5CCCC5)CC4)c3c21` [Compound I-228, (R)-2-hydroxy-3-((R)-4-(((1r,4R)-4-(pyrrolidin-1-yl)cyclohexyl)oxy)-6,7-dihydro-5H-cyclopenta[4,5]thieno[2,3-d]pyrimidin-5-yl)propanamide], the IC50 (IRAK4) was under 5 µM, the IC50 (THP-1 cells; read-out: IL8 production IC50) was at most 0.5 µM and the IC50 (THP-1 cells; read-out: TNFα production IC50) was at most 0.5 µM.
In the case of `CO[C@H](C[C@H]1CCc2sc3ncnc(O[C@H]4CC[C@H](N(C)C)CC4)c3c21)C(N)=O` [Compound I-77, (2R)-3-[(3R)-12-[[4-(dimethylamino)cyclohexyl]oxy]-7-thia-9,11-diazatricyclo[6.4.0.0[2,6]]dodeca-1(8),2(6),9,11-tetraen-3-yl]-2-methoxypropanamide], the IC50 (IRAK4) is reported as under 5 µM, the IC50 (THP-1 cells; read-out: IL8 production IC50) is reported as 0.5 to 1 µM and the IC50 (THP-1 cells; read-out: TNFα production IC50) is reported as 1 to 5 µM.
